A word on the IC50: it is the concentration needed to halve the response being measured. Read a high IC50 as lower potency. One may read the Ki as the equilibrium dissociation constant of an inhibitor or competing ligand from its target. Lower therefore signals higher affinity.

Structures are written as SMILES. The source made the active and inactive calls. No cut-off for these calls is given here.

Data on nine molecules can be found in ChEMBL document CHEMBL1157004 (Bioorg Med Chem, 2009).

The subject of data set [1] is Rattus norvegicus. In words: Antiamnesic activity against scopolamine-induced memory loss and learning impairment in Wistar rat assessed as transfer latency period to reach from open arm to closed arm ends measured on day 2 at 0.5 mg/kg, po by elevated plus maze test. In kind it is functional.
For data set [2], the system named is Rattus norvegicus. As to the kind of experiment: Antiamnesic activity against scopolamine-induced dementia in Wistar rat assessed as decrease in occurrence of mistakes at 0.5 mg/kg, po. The data set is classed as functional, organism-based. The arrangement: dose 0.5 mg/kg.
For data set [3], the system named is Rattus norvegicus. As to the kind of experiment: Cholinergic toxicity in po dosed Wistar rat assessed as occurrence of salivation after 1 week. In kind it is organism-based. To be noted: in vivo, 168 h.
Data set [4] concerns Rattus norvegicus. As to the kind of experiment: Antiamnesic activity against scopolamine-induced dementia in Wistar rat assessed as latency period to improve memory at 0.5 mg/kg, po. The data set is classed as functional.
In data set [5] the test system is Rattus norvegicus. As to the kind of experiment: Antiamnesic activity against scopolamine-induced dementia in Wistar rat assessed as basal latency period to reach shock free zone at 0.5 mg/kg, po. In kind it is functional.
Data set [6] relates to Rattus norvegicus. In words: Cholinergic toxicity in po dosed Wistar rat assessed as occurrence of defecation after 1 week. In kind it is organism-based. To be noted: in vivo, 168 h.
Data set [7] deals with Rattus norvegicus. As to the kind of experiment: Toxicity in po dosed Wistar rat assessed as mortality within 1 week. The data set is classed as organism-based. The following applies: in vivo, 168 h.
The test system of data set [8] is Rattus norvegicus. In words: Antiamnesic activity against scopolamine-induced memory loss and learning impairment in Wistar rat at 0.5 mg/kg, po by Y maze test. The arrangement: dose 0.5 mg/kg. In kind it is functional, organism-based.
Data set [9] concerns Rattus norvegicus. As to the kind of experiment: Antiamnesic activity against scopolamine-induced memory loss and learning impairment in Wistar rat assessed as transfer latency period to reach from open arm to closed arm ends measured on day 1 at 0.5 mg/kg, po by elevated plus maze test. In kind it is functional.
In data set [10] the target is T1, Muscarinic acetylcholine receptor M1 (Rattus norvegicus) (UniProt P08482).
T1 sequence (whole entry): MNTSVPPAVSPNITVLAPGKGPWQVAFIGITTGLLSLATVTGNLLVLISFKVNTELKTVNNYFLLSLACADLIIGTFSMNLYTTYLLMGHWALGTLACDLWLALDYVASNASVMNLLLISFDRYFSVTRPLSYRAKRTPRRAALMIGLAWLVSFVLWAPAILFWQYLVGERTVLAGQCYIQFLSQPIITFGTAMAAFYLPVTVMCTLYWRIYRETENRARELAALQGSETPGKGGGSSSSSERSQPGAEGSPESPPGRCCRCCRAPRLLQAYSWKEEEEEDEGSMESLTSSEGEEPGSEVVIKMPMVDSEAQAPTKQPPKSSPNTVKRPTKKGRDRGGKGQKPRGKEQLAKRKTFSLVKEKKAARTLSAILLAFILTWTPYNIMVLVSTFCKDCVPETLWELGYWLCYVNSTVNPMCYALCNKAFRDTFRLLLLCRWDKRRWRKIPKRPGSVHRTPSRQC
In words: Agonist activity at muscarinic M1 receptor in Wistar rat cerebral cortex assessed as [3H]myoinositol (1,4,5)-triphosphate level per gram of protein at 100 uM after 1 hr by liquid scintillation counting. The data set is classed as functional, tissue-based.

Data set [11] concerns the target T2, Muscarinic acetylcholine receptor M1 (Rattus norvegicus, UniProt P08482).
T2 sequence (P08482 whole entry): T1 sequence (whole entry)
In words: Displacement of [3H]QNB from muscarinic M1 receptor in Wistar rat brain cortex after 2 hrs by liquid scintillation counting. On the technique in general: Loss of bound radioactivity is the signal in a displacement assay; it reports binding, not function.

On to `CN1CCC=C(C2CN(C(=O)c3ccc(Cl)cc3)CCO2)C1` (stereo unspecified), for which the Time in the data set on Rattus norvegicus [1] amounted to 17 s; in the data set on Rattus norvegicus [4], 3 s; in the data set on Rattus norvegicus [5] it was 7 s; in the data set on Rattus norvegicus [9], 37 s. For the same molecule, the outcome in the data set on Rattus norvegicus [2] and in the data set on Rattus norvegicus [8] was Active. In addition, the Activity result in the data set on Rattus norvegicus [3], in the data set on Rattus norvegicus [6] and in the data set on Rattus norvegicus [7] was “Non-toxic” each time.

Turning to `CN1CCC=C(C2CN(C(=O)c3ccccc3)CCO2)C1` (stereo unspecified), the Time is reported as 35 s in the data set with Rattus norvegicus [1], 6 s in the data set with Rattus norvegicus [4], 10 s in the data set on Rattus norvegicus [5] and 53 s in the data set on Rattus norvegicus [9]. Further, the outcome in the data set on Rattus norvegicus [2] and with Rattus norvegicus [8] was Active. The Activity entry with Rattus norvegicus [3], in the data set with Rattus norvegicus [6] and in the data set on Rattus norvegicus [7] was “Non-toxic” each time.

On to `CN1CCC=C(C2CN(C(=O)c3ccc(C(C)(C)C)cc3)CCO2)C1` (stereo unspecified), for which the Time was found to be 53 s in the data set with Rattus norvegicus [1], 6 s in the data set with Rattus norvegicus [4], 11 s in the data set with Rattus norvegicus [5] and 65 s in the data set with Rattus norvegicus [9]. The result in the data set on Rattus norvegicus [2] and in the data set on Rattus norvegicus [8] was Active. Further, the Activity result in the data set with Rattus norvegicus [3], in the data set on Rattus norvegicus [6] and in the data set on Rattus norvegicus [7] was “Non-toxic” in each case.

With `CN1CCC=C(C2CN(C(=O)c3ccc([N+](=O)[O-])cc3)CCO2)C1` (stereo unspecified), the Time in the data set with Rattus norvegicus [1] was determined as 52 s; in the data set on Rattus norvegicus [4], 5 s; with Rattus norvegicus [5] it was 10 s; with Rattus norvegicus [9], 64 s. Further, the outcome in the data set with Rattus norvegicus [2] and with Rattus norvegicus [8] was Active. Besides, the Activity entry with Rattus norvegicus [3], with Rattus norvegicus [6] and in the data set on Rattus norvegicus [7] was “Non-toxic” in each case.

For the molecule `COC(=O)C1=CCCN(C)C1` [ARECOLINE], the Time is given as 36 s in the data set with Rattus norvegicus [1], 5 s with Rattus norvegicus [4], 10 s with Rattus norvegicus [5] and 52 s with Rattus norvegicus [9]. For the same molecule, the Activity result in the data set on Rattus norvegicus [7] is reported as “Non-toxic”. In addition, in the data set on Rattus norvegicus [8], the result was Active.

With `CN1CCC=C(C2CN(C(=O)c3cccc([N+](=O)[O-])c3)CCO2)C1` (stereo unspecified), the Time is reported as 47 s in the data set on Rattus norvegicus [1], 4 s with Rattus norvegicus [4], 10 s in the data set on Rattus norvegicus [5] and 64 s in the data set on Rattus norvegicus [9]. The result in the data set on Rattus norvegicus [2] and with Rattus norvegicus [8] was Active. For the same molecule, the Activity result with Rattus norvegicus [3], with Rattus norvegicus [6] and in the data set with Rattus norvegicus [7] was “Non-toxic” in each case.

On to `Cc1ccc(C(=O)N2CCOC(C3=CCCN(C)C3)C2)cc1` (stereo unspecified), for which the Time with Rattus norvegicus [1] stood at 13 s; in the data set on Rattus norvegicus [4], 4 s; in the data set on Rattus norvegicus [5], 8 s; in the data set with Rattus norvegicus [9], 33 s. Further, the outcome with Rattus norvegicus [2] and with Rattus norvegicus [8] was Active. Moreover, the Activity result in the data set with Rattus norvegicus [3], in the data set on Rattus norvegicus [6] and in the data set with Rattus norvegicus [7] was “Non-toxic” in each case.

As to `CN1CCC=C(C2CN(C(=O)c3cc(Cl)ccc3Cl)CCO2)C1` (stereo unspecified), the Time in the data set with Rattus norvegicus [1] is 53 s; with Rattus norvegicus [4], 9 s; in the data set with Rattus norvegicus [5] it was 11 s; in the data set on Rattus norvegicus [9], 66 s. For the same molecule, the result in the data set with Rattus norvegicus [2] and with Rattus norvegicus [8] was Active. The Activity result in the data set on Rattus norvegicus [3], with Rattus norvegicus [6] and in the data set on Rattus norvegicus [7] was “Non-toxic” throughout.

Regarding `CN1CCC=C(C2CN(C(=O)c3ccccc3[N+](=O)[O-])CCO2)C1` (stereo unspecified), the Time in the data set with Rattus norvegicus [1] is listed as 52 s; with Rattus norvegicus [4] it was 5 s; in the data set with Rattus norvegicus [5] it was 10 s; in the data set with Rattus norvegicus [9], 66 s. Moreover, the outcome in the data set with Rattus norvegicus [2] and in the data set on Rattus norvegicus [8] was Active. The Activity entry is “Non-toxic” with Rattus norvegicus [3], 0.65 pmol in data set [10], “Non-toxic” with Rattus norvegicus [6] and “Non-toxic” with Rattus norvegicus [7]. The molecule further yielded an IC50 in data set [11] of 618 µM. The Ki in data set [11] amounted to 126 µM.
